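In this assay, cells in 96-well plates receive the compound at five concentrations for 48 hours. Endpoints are linearly interpolated between the surrounding concentrations. At the GI50, growth is halved. At the TGI there is no net growth.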
Legend:
Assay in all cases: DTP human tumour cell line panel, 48 h
786-0 renal = test system: 786-0 renal
A498 renal = test system: A498 renal
A549 NSCLC = test system: A549 NSCLC
ACHN renal = test system: ACHN renal
BT-549 breast = test system: BT-549 breast
CAKI-1 renal = test system: CAKI-1 renal
CCRF-CEM leukemia = test system: CCRF-CEM leukemia
COLO 205 colon = test system: COLO 205 colon
DU-145 prostate = test system: DU-145 prostate
EKVX NSCLC = test system: EKVX NSCLC
HCC-2998 colon = test system: HCC-2998 colon
HCT-116 colon = test system: HCT-116 colon
HCT-15 colon = test system: HCT-15 colon
HL-60(TB) leukemia = test system: HL-60(TB) leukemia
HOP-92 NSCLC = test system: HOP-92 NSCLC
HS 578T breast = test system: HS 578T breast
HT29 colon = test system: HT29 colon
IGROV1 ovarian = test system: IGROV1 ovarian
K-562 leukemia = test system: K-562 leukemia
KM12 colon = test system: KM12 colon
LOX IMVI melanoma = test system: LOX IMVI melanoma
MALME-3M melanoma = test system: MALME-3M melanoma
MCF7 breast = test system: MCF7 breast
MDA-MB-231 breast = test system: MDA-MB-231 breast
MDA-MB-435 = test system: MDA-MB-435
MOLT-4 leukemia = test system: MOLT-4 leukemia
NCI-H226 lung = test system: NCI-H226 lung
NCI-H23 lung = test system: NCI-H23 lung
NCI-H460 lung = test system: NCI-H460 lung
NCI/ADR-RES ovarian = test system: NCI/ADR-RES ovarian
OVCAR-4 ovarian = test system: OVCAR-4 ovarian
OVCAR-8 ovarian = test system: OVCAR-8 ovarian
PC-3 prostate = test system: PC-3 prostate
RPMI-8226 leukemia = test system: RPMI-8226 leukemia
RXF 393 renal = test system: RXF 393 renal
SF-268 CNS = test system: SF-268 CNS
SF-295 CNS = test system: SF-295 CNS
SF-539 CNS = test system: SF-539 CNS
SK-MEL-2 melanoma = test system: SK-MEL-2 melanoma
SK-MEL-28 melanoma = test system: SK-MEL-28 melanoma
SK-MEL-5 melanoma = test system: SK-MEL-5 melanoma
SK-OV-3 ovarian = test system: SK-OV-3 ovarian
SN12C renal = test system: SN12C renal
SNB-19 CNS = test system: SNB-19 CNS
SNB-75 CNS = test system: SNB-75 CNS
SR leukemia = test system: SR leukemia
SW-620 colon = test system: SW-620 colon
T-47D breast = test system: T-47D breast
TK-10 renal = test system: TK-10 renal
U251 CNS = test system: U251 CNS
UACC-257 melanoma = test system: UACC-257 melanoma
UACC-62 melanoma = test system: UACC-62 melanoma
UO-31 renal = test system: UO-31 renal
HOP-62 NSCLC = test system: HOP-62 NSCLC
M14 melanoma = test system: M14 melanoma
NCI-H522 lung = test system: NCI-H522 lung
OVCAR-3 ovarian = test system: OVCAR-3 ovarian
OVCAR-5 ovarian = test system: OVCAR-5 ovarian

## Cc1cc([C@H](C#N)c2nc3ccccc3[nH]2)nc(Cl)n1
786-0 renal
  TGI: > 100 µM
A498 renal
  TGI: > 100 µM
A549 NSCLC
  TGI: > 100 µM
ACHN renal
  TGI: > 100 µM
BT-549 breast
  TGI: > 100 µM
CAKI-1 renal
  TGI: > 100 µM
CCRF-CEM leukemia
  TGI: > 100 µM
COLO 205 colon
  TGI: > 100 µM
DU-145 prostate
  TGI: > 100 µM
EKVX NSCLC
  TGI: > 100 µM
HCC-2998 colon
  TGI: 42.8 µM
HCT-116 colon
  TGI: > 100 µM
HCT-15 colon
  TGI: > 100 µM
HL-60(TB) leukemia
  TGI: > 100 µM
HOP-92 NSCLC
  TGI: > 100 µM
HS 578T breast
  TGI: > 100 µM
HT29 colon
  TGI: > 100 µM
IGROV1 ovarian
  TGI: > 100 µM
K-562 leukemia
  TGI: > 100 µM
KM12 colon
  TGI: 28.1 µM
LOX IMVI melanoma
  TGI: > 100 µM
MALME-3M melanoma
  TGI: > 100 µM
MCF7 breast
  TGI: > 100 µM
MDA-MB-231 breast
  TGI: > 100 µM
MDA-MB-435
  TGI: > 100 µM
MOLT-4 leukemia
  TGI: > 100 µM
NCI-H226 lung
  TGI: > 100 µM
NCI-H23 lung
  TGI: > 100 µM
NCI-H460 lung
  TGI: 63.5 µM
NCI/ADR-RES ovarian
  TGI: > 100 µM
OVCAR-4 ovarian
  TGI: > 100 µM
OVCAR-8 ovarian
  TGI: > 100 µM
PC-3 prostate
  TGI: > 100 µM
RPMI-8226 leukemia
  TGI: > 100 µM
RXF 393 renal
  TGI: > 100 µM
SF-268 CNS
  TGI: > 100 µM
SF-295 CNS
  TGI: > 100 µM
SF-539 CNS
  TGI: > 100 µM
SK-MEL-2 melanoma
  TGI: > 100 µM
SK-MEL-28 melanoma
  TGI: > 100 µM
SK-MEL-5 melanoma
  TGI: > 100 µM
SK-OV-3 ovarian
  TGI: > 100 µM
SN12C renal
  TGI: > 100 µM
SNB-19 CNS
  TGI: > 100 µM
SNB-75 CNS
  TGI: 93.4 µM
SR leukemia
  TGI: > 100 µM
SW-620 colon
  TGI: > 100 µM
T-47D breast
  TGI: 89.5 µM
TK-10 renal
  TGI: > 100 µM
U251 CNS
  TGI: > 100 µM
UACC-257 melanoma
  TGI: 71.4 µM
UACC-62 melanoma
  TGI: 65.3 µM
UO-31 renal
  TGI: > 100 µM

## O=c1c(Oc2ccc(F)cc2F)cc2cnc(NC3CCOCC3)nc2n1C1CCS(=O)(=O)CC1
786-0 renal
  GI50: > 25 µM
  TGI: > 25 µM
A498 renal
  GI50: > 25 µM
  TGI: > 25 µM
A549 NSCLC
  GI50: > 25 µM
  TGI: > 25 µM
ACHN renal
  GI50: > 25 µM
  TGI: > 25 µM
BT-549 breast
  GI50: > 25 µM
  TGI: > 25 µM
CAKI-1 renal
  GI50: > 25 µM
  TGI: > 25 µM
CCRF-CEM leukemia
  GI50: > 25 µM
  TGI: > 25 µM
COLO 205 colon
  GI50: > 25 µM
  TGI: > 25 µM
DU-145 prostate
  GI50: > 25 µM
  TGI: > 25 µM
HCC-2998 colon
  GI50: > 25 µM
  TGI: > 25 µM
HCT-116 colon
  GI50: > 25 µM
  TGI: > 25 µM
HCT-15 colon
  GI50: > 25 µM
  TGI: > 25 µM
HL-60(TB) leukemia
  GI50: > 25 µM
  TGI: > 25 µM
HOP-62 NSCLC
  GI50: > 25 µM
  TGI: > 25 µM
HOP-92 NSCLC
  GI50: > 25 µM
  TGI: > 25 µM
HS 578T breast
  GI50: > 25 µM
  TGI: > 25 µM
HT29 colon
  GI50: > 25 µM
  TGI: > 25 µM
IGROV1 ovarian
  GI50: > 25 µM
  TGI: > 25 µM
K-562 leukemia
  GI50: > 25 µM
  TGI: > 25 µM
KM12 colon
  GI50: > 25 µM
  TGI: > 25 µM
LOX IMVI melanoma
  GI50: > 25 µM
  TGI: > 25 µM
M14 melanoma
  GI50: > 25 µM
  TGI: > 25 µM
MALME-3M melanoma
  GI50: > 25 µM
  TGI: > 25 µM
MCF7 breast
  GI50: > 25 µM
  TGI: > 25 µM
MDA-MB-231 breast
  GI50: > 25 µM
  TGI: > 25 µM
MDA-MB-435
  GI50: > 25 µM
  TGI: > 25 µM
MOLT-4 leukemia
  GI50: > 25 µM
  TGI: > 25 µM
NCI-H226 lung
  GI50: > 25 µM
  TGI: > 25 µM
NCI-H23 lung
  GI50: > 25 µM
  TGI: > 25 µM
NCI-H460 lung
  GI50: > 25 µM
  TGI: > 25 µM
NCI-H522 lung
  GI50: > 25 µM
  TGI: > 25 µM
NCI/ADR-RES ovarian
  GI50: > 25 µM
  TGI: > 25 µM
OVCAR-3 ovarian
  GI50: > 25 µM
  TGI: > 25 µM
OVCAR-4 ovarian
  GI50: > 25 µM
  TGI: > 25 µM
OVCAR-5 ovarian
  GI50: > 25 µM
  TGI: > 25 µM
OVCAR-8 ovarian
  GI50: > 25 µM
  TGI: > 25 µM
PC-3 prostate
  GI50: > 25 µM
  TGI: > 25 µM
RPMI-8226 leukemia
  GI50: > 25 µM
  TGI: > 25 µM
RXF 393 renal
  GI50: > 25 µM
  TGI: > 25 µM
SF-268 CNS
  GI50: > 25 µM
  TGI: > 25 µM
SF-295 CNS
  GI50: > 25 µM
  TGI: > 25 µM
SF-539 CNS
  GI50: > 25 µM
  TGI: > 25 µM
SK-MEL-2 melanoma
  GI50: > 25 µM
  TGI: > 25 µM
SK-MEL-28 melanoma
  GI50: > 25 µM
  TGI: > 25 µM
SK-MEL-5 melanoma
  GI50: > 25 µM
  TGI: > 25 µM
SK-OV-3 ovarian
  GI50: > 25 µM
  TGI: > 25 µM
SN12C renal
  GI50: > 25 µM
  TGI: > 25 µM
SNB-19 CNS
  GI50: > 25 µM
  TGI: > 25 µM
SNB-75 CNS
  GI50: > 25 µM
  TGI: > 25 µM
SR leukemia
  GI50: > 25 µM
  TGI: > 25 µM
SW-620 colon
  GI50: > 25 µM
  TGI: > 25 µM
T-47D breast
  GI50: > 25 µM
  TGI: > 25 µM
TK-10 renal
  GI50: > 25 µM
  TGI: > 25 µM
U251 CNS
  GI50: > 25 µM
  TGI: > 25 µM
UACC-257 melanoma
  GI50: > 25 µM
  TGI: > 25 µM
UACC-62 melanoma
  GI50: > 25 µM
  TGI: > 25 µM
UO-31 renal
  GI50: > 25 µM
  TGI: > 25 µM

From PubChem BioAssay (NCI)
